The species entered for experiment [1] is Homo sapiens. As to the kind of experiment: Selectivity ratio of IC50 for recombinant human eNOS to IC50 for recombinant human nNOS.
The target of experiment [2] is T1, Nitric oxide synthase 3 (Homo sapiens, UniProt P29474).
T1 sequence (P29474 whole entry): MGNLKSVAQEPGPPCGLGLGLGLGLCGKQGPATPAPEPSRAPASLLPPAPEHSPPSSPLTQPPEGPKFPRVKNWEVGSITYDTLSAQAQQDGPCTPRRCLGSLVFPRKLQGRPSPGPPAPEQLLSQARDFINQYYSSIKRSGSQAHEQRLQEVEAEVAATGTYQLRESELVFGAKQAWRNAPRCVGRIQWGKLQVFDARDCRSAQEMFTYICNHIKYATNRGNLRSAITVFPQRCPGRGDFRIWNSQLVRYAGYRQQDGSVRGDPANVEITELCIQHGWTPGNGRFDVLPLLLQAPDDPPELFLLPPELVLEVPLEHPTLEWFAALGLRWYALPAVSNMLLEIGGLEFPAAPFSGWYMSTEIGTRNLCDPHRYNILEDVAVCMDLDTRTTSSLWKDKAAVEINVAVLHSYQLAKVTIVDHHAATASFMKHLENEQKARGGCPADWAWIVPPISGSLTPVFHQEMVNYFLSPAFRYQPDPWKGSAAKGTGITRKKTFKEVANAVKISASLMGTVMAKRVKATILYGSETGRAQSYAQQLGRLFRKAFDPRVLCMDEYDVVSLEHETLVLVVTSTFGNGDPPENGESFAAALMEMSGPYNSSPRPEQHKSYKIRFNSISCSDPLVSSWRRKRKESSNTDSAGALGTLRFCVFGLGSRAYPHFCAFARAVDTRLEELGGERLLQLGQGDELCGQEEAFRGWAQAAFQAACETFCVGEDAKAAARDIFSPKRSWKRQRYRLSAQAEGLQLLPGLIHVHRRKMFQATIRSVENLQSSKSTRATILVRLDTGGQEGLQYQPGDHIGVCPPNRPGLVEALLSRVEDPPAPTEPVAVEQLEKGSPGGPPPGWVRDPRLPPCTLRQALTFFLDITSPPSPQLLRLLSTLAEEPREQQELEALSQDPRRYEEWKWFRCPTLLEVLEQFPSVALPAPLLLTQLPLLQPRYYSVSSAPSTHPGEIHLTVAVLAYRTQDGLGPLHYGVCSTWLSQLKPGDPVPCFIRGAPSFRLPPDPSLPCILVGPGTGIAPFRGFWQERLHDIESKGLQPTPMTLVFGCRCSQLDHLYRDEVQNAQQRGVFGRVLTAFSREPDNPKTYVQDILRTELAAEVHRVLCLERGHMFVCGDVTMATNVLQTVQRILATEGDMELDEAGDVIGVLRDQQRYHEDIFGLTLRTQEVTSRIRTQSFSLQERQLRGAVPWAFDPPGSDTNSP
Kind of experiment: Inhibition of recombinant human eNOS expressed in baculovirus infected insect Sf9 cells assessed as conversion of [3H]-L-arginine into [3H]-L-citrulline by radiometric method.

Experiment [3] has as its target Nitric oxide synthase 1 (Homo sapiens, UniProt P29475). As to the kind of experiment: Inhibition of recombinant human nNOS expressed in baculovirus infected insect Sf9 cells assessed as conversion of [3H]-L-arginine into [3H]-L-citrulline by radiometric method.
Experiment [4] deals with Nitric oxide synthase, inducible (Homo sapiens, UniProt P35228). As to the kind of experiment: Inhibition of recombinant human iNOS expressed in baculovirus infected insect Sf9 cells assessed as conversion of [3H]-L-arginine into [3H]-L-citrulline by radiometric method.
Sequence of Nitric oxide synthase, inducible (P35228 whole entry): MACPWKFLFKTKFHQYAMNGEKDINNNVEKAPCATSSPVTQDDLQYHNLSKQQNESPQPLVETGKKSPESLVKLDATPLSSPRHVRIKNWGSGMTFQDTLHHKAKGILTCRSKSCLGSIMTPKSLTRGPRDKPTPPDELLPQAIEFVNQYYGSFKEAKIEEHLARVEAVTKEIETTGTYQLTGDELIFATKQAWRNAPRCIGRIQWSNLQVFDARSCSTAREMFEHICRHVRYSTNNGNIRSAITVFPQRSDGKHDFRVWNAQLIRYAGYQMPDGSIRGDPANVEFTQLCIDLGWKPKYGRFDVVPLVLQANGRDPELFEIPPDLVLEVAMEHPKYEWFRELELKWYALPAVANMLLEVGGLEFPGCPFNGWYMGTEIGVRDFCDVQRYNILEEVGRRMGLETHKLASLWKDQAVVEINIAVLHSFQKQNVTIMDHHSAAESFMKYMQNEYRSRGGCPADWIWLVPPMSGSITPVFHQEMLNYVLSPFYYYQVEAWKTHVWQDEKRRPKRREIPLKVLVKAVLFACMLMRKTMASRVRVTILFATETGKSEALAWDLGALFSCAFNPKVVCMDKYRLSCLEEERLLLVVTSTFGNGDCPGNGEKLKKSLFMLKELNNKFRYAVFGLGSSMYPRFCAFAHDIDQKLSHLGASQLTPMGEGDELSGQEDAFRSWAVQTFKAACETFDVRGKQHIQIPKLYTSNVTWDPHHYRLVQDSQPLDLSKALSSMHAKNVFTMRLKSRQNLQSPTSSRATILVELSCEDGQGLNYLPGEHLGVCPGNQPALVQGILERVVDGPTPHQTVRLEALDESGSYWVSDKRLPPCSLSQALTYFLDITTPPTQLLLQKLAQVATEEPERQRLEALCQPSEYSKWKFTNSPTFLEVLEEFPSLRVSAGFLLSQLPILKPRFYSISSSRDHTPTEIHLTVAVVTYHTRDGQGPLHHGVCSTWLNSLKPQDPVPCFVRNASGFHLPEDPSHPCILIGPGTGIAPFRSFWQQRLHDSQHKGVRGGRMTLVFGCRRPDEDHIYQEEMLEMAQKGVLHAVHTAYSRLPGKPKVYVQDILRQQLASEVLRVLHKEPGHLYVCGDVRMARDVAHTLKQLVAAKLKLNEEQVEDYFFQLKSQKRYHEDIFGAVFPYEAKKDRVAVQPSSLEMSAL
Experiment [5] deals with Nitric oxide sythases; iNOS & nNOS (Homo sapiens) (UniProt P29475+P35228). As to the kind of experiment: Selectivity ratio of IC50 for recombinant human iNOS to IC50 for recombinant human nNOS.
Sequence of Nitric oxide sythases; iNOS & nNOS (Homo sapiens) (P29475 whole entry, looked up): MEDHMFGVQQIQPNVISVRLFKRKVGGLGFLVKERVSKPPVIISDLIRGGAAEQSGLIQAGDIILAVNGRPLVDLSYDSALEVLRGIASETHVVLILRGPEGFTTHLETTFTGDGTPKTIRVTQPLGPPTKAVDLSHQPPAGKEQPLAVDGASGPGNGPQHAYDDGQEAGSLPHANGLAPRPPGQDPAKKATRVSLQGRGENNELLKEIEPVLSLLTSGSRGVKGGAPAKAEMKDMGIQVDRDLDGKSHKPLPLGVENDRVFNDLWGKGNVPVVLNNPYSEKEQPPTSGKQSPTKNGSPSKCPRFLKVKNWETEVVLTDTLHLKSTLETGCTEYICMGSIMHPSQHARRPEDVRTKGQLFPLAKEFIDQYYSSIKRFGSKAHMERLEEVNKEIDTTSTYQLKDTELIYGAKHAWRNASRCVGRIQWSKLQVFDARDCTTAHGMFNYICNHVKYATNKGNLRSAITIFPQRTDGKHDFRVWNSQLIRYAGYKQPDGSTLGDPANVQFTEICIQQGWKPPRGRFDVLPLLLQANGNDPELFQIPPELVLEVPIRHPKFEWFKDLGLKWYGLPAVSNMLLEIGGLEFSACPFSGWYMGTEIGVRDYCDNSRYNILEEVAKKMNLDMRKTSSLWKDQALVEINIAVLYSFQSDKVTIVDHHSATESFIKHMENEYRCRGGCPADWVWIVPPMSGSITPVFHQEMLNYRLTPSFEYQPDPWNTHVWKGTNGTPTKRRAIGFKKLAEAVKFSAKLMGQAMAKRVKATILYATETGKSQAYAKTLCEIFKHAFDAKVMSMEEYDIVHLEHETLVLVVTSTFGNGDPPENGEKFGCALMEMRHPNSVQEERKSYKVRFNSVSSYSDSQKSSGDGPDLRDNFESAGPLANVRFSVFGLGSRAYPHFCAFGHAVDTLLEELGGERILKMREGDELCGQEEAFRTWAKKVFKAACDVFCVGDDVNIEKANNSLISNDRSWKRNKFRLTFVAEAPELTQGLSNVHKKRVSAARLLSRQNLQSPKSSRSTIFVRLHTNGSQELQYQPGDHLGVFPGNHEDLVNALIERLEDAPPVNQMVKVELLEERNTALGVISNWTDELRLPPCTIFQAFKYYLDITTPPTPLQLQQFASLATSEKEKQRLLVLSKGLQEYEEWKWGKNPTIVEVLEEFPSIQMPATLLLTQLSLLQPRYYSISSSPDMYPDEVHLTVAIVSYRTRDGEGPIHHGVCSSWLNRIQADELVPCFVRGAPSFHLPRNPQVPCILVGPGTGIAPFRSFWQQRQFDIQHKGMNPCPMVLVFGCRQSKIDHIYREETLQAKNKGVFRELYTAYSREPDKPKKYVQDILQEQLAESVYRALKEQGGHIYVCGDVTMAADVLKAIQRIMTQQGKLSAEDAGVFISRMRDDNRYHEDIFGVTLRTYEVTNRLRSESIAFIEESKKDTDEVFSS
Sequence of Nitric oxide sythases; iNOS & nNOS (Homo sapiens) (P35228 whole entry, looked up): as the sequence (P35228 whole entry) above
Experiment [6] relates to Rattus norvegicus. Kind of experiment: Antiallodynic activity in Sprague-Dawley rat model of migraine pain assessed as attenuation of cutaneous allodynia in the hind-paws at 30 mg/kg, po administered 15 mins prior to application of inflammatory soup measured between 2 to 6 hrs. Further details: dose 30 mg/kg. It counts as functional, organism-based.
The subject of experiment [7] is Rattus norvegicus. Kind of experiment: Antiallodynic activity in Sprague-Dawley rat model of migraine pain assessed as attenuation of cutaneous allodynia in the hind-paws at 30 mg/kg, po administered 15 mins prior to application of inflammatory soup measured at 4 hrs. The class given is functional, organism-based. Details: dose 30 mg/kg.

The source made the active and inactive calls. The rule behind the calls is not given here.

Sequence of Nitric oxide synthase 1 (P29475 whole entry): as the sequence (P29475 whole entry, looked up) above

As for `N/C(=N\c1ccc2ccn(CCCCn3ccnc3)c2c1)c1cccs1`, the Ratio IC50 in experiment [1] worked out at 19.

`CN1CCCC(n2ccc3ccc(NC(=N)c4cccs4)cc32)CC1` (stereo not drawn): the IC50 in experiment [2] turned out to be 37.7 µM. As to `CN(C)CCCCn1ccc2ccc(NC(=N)c3cccs3)cc21`, the half-inhibitory concentration (IC50) was found to be 260 nM in experiment [3], 2.53 µM in experiment [2] and 66 µM in experiment [4]. With `N/C(=N\c1ccc2ccn(CCCN3CCOCC3)c2c1)c1ccco1`, the results for the Ratio IC50 in experiment [1] and in experiment [5] were 14 and 15, respectively. In the case of `N=C(Nc1ccc2ccn(CCN3CCCCC3)c2c1)c1cccs1`, in experiment [4], the IC50 worked out at 21 µM. Turning to `CN(C)CCn1ccc2ccc(N=C(N)c3cccs3)cc21`, in experiment [4], the IC50 worked out at 60 µM.

As to `N=C(Nc1ccc2ccn(CCCN3CCOCC3)c2c1)c1cccs1`, the IC50 in experiment [3] stood at 700 nM; in experiment [2], 28.3 µM; in experiment [4] it was 82 µM. For `CN1CCCC1CCn1ccc2ccc(/N=C(\N)c3cccs3)cc21` (racemic), the Ratio IC50 in experiment [1] came out at 86; in experiment [5], 309. For `CN(C)CCCn1ccc2ccc(NC(=N)c3cccs3)cc21`, the concentration for half-maximal inhibition (IC50) in experiment [2] amounted to 23.3 µM. For the compound `N/C(=N\c1ccc2ccn(CCCN3CCOCC3)c2c1)c1cccs1`, the Ratio IC50 amounted to 40 in experiment [1] and 117 in experiment [5]. For the compound `CN(C)CCCCn1ccc2ccc(/N=C(\N)c3cccs3)cc21`, the Ratio IC50 is 10 in experiment [1] and 254 in experiment [5]. Take `N/C(=N\c1ccc2ccn(CCCN3CCOCC3)c2c1)c1ccsc1`: the Ratio IC50 in experiment [1] came out at 12.1; in experiment [5], 50. `CCN(CC)CCCn1ccc2ccc(NC(=N)c3cccs3)cc21`: the IC50 in experiment [3] came to 150 nM. For `N/C(=N\c1ccc2ccn(CCCN3CCCC3)c2c1)c1cccs1`, in experiment [1], the Ratio IC50 turned out to be 25.

With `N=C(Nc1ccc2ccn(CCCN3CCOCC3)c2c1)c1ccco1`, in experiment [4], the half-inhibitory concentration (IC50) worked out at 36 µM. With `N/C(=N\c1ccc2ccn(CCCN3CCOCC3)c2c1)c1ccoc1`, the Ratio IC50 in experiment [1] was found to be 19. Take `CN1CCCC(n2ccc3ccc(NC(=N)c4ccco4)cc32)CC1` (stereo not drawn): the IC50 in experiment [3] came to 520 nM; in experiment [2], 30.6 µM; in experiment [4] it was 1.2 µM. In addition, the values for the Ratio IC50 in experiment [1] and in experiment [5] were 59 and 2, respectively. Turning to `CN1CCCC(n2ccc3ccc(/N=C(\N)c4cccs4)cc32)CC1` (stereo not drawn), in experiment [1], the Ratio IC50 was 43. As to `N=C(Nc1ccc2ccn(CCCN3CCOCC3)c2c1)c1ccoc1`, the IC50 in experiment [4] is > 100 µM. Take `N/C(=N\c1ccc2ccn(CCN3CCCCC3)c2c1)c1cccs1`: the Ratio IC50 in experiment [1] came to 8; in experiment [5], 43. With `N=C(Nc1ccc2ccn(CCCN3CCCC3)c2c1)c1cccs1`, the IC50 in experiment [3] was found to be 450 nM; in experiment [2], 11.2 µM.

As to `CN1CCC[C@@H]1CCn1ccc2ccc(/N=C(\N)c3cccs3)cc21`, the IC50 in experiment [4] amounted to 72 µM. Also, the Ratio IC50 in experiment [1] is 50; in experiment [5], 225. The result in experiment [6] and in experiment [7] was Active. Consider `CN1CCC[C@H]1CCn1ccc2ccc(/N=C(\N)c3cccs3)cc21`, for which, in experiment [4], the IC50 came out at 72 µM. Also, the Ratio IC50 in experiment [1] came to 120; in experiment [5] it was 360. Consider `CN1CCCC1CCn1ccc2ccc(NC(=N)c3cccs3)cc21` (racemic), for which the IC50 in experiment [3] amounted to 220 nM; in experiment [2], 19 µM; in experiment [4], 68 µM. `N=C(Nc1ccc2ccn(CCCN3CCOCC3)c2c1)c1ccsc1`: the IC50 in experiment [4] was 70 µM. As to `CNCCCn1ccc2ccc(/N=C(\N)c3cccs3)cc21`, the Ratio IC50 in experiment [1] was found to be 6. For the compound `N=C(Nc1ccc2ccn(CCCCn3ccnc3)c2c1)c1cccs1`, the half-maximal inhibitory concentration (IC50) was 23 µM in experiment [2] and > 100 µM in experiment [4]. As to `CNCCCn1ccc2ccc(NC(=N)c3cccs3)cc21`, the IC50 in experiment [2] was determined as 11.8 µM.

For the compound `CCN(CC)CCCn1ccc2ccc(/N=C(\N)c3cccs3)cc21`, in experiment [1], the Ratio IC50 was 68.

As a reminder, the IC50 is the concentration that gives 50% inhibition.
